Test results taken from ChEMBL document CHEMBL1147504, “Synthesis of methylphenidate analogues and their binding affinities at dopamine and serotonin transport sites” (Bioorg Med Chem Lett, 2004).

Key:
[1] = […]; type: tissue-based, Frontal cortex
[2] = target: Dopamine receptor
Description: Potency of inhibiting 10 pM [125I]-RTI-55 binding to dopamine receptor in rat striatal membranes

[3] = target: Sodium-dependent serotonin transporter (Rattus norvegicus, UniProt P31652); assay: Ability to displace 0.4 nM [3H]paroxetine binding to serotonin transporter in rat frontal cortex; type: tissue-based
[4] = target: T1, Sodium-dependent dopamine transporter (Rattus norvegicus, UniProt P23977)
Description: Potency of inhibiting 10 pM [125I]RTI-55 binding to dopamine transporter in rat striatal membranes

[5] = target: Dopamine receptor; assay: Potency of inhibiting [3H]WIN-35428 binding to […] in rat striatal membranes; type: cell membranes, Membrane
[6] = target: T1, Sodium-dependent dopamine transporter; assay: Inhibitory activity against dopamine transporter in rat striatal membranes; type: cell membranes, Striatum, Membrane

T1 sequence (P23977 whole entry): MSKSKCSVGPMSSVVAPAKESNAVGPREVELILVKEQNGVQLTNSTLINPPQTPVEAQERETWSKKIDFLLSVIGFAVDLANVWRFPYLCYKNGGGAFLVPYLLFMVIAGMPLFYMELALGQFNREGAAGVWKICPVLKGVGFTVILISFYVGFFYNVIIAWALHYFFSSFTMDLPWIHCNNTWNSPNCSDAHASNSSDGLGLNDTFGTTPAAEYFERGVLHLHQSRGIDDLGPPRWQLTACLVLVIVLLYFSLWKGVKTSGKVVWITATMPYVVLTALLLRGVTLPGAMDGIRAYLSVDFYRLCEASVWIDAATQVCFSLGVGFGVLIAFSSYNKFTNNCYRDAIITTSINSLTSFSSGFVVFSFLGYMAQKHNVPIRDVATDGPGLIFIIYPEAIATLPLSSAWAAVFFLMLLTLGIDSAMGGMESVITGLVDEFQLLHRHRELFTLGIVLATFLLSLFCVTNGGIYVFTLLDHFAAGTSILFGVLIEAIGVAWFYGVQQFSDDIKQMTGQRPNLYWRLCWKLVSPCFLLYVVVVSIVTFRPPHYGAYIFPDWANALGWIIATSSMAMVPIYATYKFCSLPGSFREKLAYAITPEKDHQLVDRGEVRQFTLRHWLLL
Chain of Sodium-dependent serotonin transporter (P31652 whole entry): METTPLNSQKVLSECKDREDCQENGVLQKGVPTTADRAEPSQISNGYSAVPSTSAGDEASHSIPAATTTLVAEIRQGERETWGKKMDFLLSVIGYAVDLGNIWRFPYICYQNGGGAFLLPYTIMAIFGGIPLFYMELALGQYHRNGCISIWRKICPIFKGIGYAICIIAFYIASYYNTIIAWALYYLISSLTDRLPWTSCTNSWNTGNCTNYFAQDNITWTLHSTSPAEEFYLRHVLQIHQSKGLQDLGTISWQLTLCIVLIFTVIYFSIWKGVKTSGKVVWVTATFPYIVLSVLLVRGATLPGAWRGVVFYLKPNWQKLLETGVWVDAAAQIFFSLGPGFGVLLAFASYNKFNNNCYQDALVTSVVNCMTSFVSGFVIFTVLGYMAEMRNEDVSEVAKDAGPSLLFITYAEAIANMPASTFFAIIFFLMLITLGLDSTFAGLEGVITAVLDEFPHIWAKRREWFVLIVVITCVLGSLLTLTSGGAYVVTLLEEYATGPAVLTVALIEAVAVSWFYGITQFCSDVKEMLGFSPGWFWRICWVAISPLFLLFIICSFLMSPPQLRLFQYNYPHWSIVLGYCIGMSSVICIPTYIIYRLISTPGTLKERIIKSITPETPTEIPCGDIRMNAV

SMILES	Ki [1] [nM]	IC50 [2] [nM]	Ki [3] [nM]	IC50 [4] [nM]	also measured
COC(=O)[C@H](c1ccc2ccccc2c1)[C@H]1CCCCN1.Cl	94.8	11.1	–	–	–
COC(=O)[C@H](c1ccc2cc(Br)ccc2c1)[C@@H]1CCCN1	–	–	5.5	446	–
COC(=O)[C@@H](c1ccc2ccccc2c1)[C@H]1CCCN1	–	–	2020	–	–
COC(=O)[C@H](c1ccc2cc(OC)ccc2c1)[C@@H]1CCCN1	–	–	54.6	–	–
COC(=O)[C@H](c1ccc2ccccc2c1)[C@@H]1CCCN1	–	–	2.5	465	–
COC(=O)[C@H](c1ccc(-c2ccccc2)cc1)[C@H]1CCCCN1.Cl (racemic)	> 10000	1020	–	–	–
COC(=O)[C@H](c1ccccc1)[C@@H]1CCCN1 (racemic)	–	–	> 10000	> 1000	–
COC(=O)[C@H](c1ccc2ccccc2c1)[C@H]1CCCCN1 (racemic)	71.6	–	–	–	–
COC(=O)[C@H](c1ccc(Cl)cc1)[C@H]1CCCN1 (racemic)	–	–	1080	272	–
COC(=O)[C@H](c1ccc(Cl)cc1)[C@@H]1CCCCN1 (racemic)	> 10000	–	–	–	–
COC(=O)[C@H](c1ccc(Br)cc1)[C@@H]1CCCN1 (racemic)	–	–	> 10000	637	–
COC(=O)[C@H](c1ccc2cc(Br)ccc2c1)[C@@H]1CCCN1 (racemic)	–	–	11.4	195	–
COC(=O)[C@H](c1ccc(C)cc1)[C@H]1CCCN1 (racemic)	–	–	> 10000	1930	–
COC(=O)[C@H](c1ccc(Cl)cc1)[C@H]1CCCCN1.Cl (racemic)	2220	91.2	–	–	IC50 [5]: 20.6 nM
COC(=O)[C@H](c1ccccc1)[C@H]1CCCN1 (racemic)	–	–	> 10000	3160	IC50 [6]: 1340 nM
COC(=O)[C@H](c1ccccc1)[C@@H]1CCCCN1.Cl (racemic)	> 10000	> 1000	–	–	–
COC(=O)[C@H](c1ccc(C)cc1)[C@@H]1CCCN1 (racemic)	–	–	> 10000	> 1000	–
COC(=O)[C@H](c1ccc(C)cc1)[C@@H]1CCCCN1.Cl (racemic)	> 10000	7430	–	–	–
COC(=O)[C@H](c1ccc2ccccc2c1)[C@@H]1CCCCN1.Cl (racemic)	105	2080	–	–	–
COC(=O)[C@H](c1ccc2cc(OC)ccc2c1)[C@@H]1CCCN1 (racemic)	–	–	245	–	–
COC(=O)[C@H](c1ccc(Cl)c(Cl)c1)[C@@H]1CCCCN1.Cl (racemic)	> 10000	33.8	–	–	–
COC(=O)[C@H](c1ccc(-c2ccccc2)cc1)[C@@H]1CCCCN1.Cl (racemic)	> 10000	6470	–	–	–
COC(=O)[C@H](c1ccc(Cl)cc1)[C@@H]1CCCN1 (racemic)	–	–	1900	> 1000	–
COC(=O)[C@H](c1ccc(C)cc1)[C@H]1CCCCN1.Cl (racemic)	> 10000	114	–	–	IC50 [5]: 33 nM
COC(=O)[C@H](c1ccc2ccccc2c1)[C@@H]1CCCN1 (racemic)	–	–	4	805	–
COC(=O)[C@H](c1ccc(Cl)c(Cl)c1)[C@H]1CCCCN1.Cl (racemic)	> 10000	2.67	–	–	IC50 [5]: 5.3 nM
COC(=O)[C@H](c1ccccc1)[C@H]1CCCCN1.Cl (racemic) [DEXMETHYLPHENIDATE HYDROCHLORIDE]	> 10000	164	–	–	IC50 [5]: 83 nM
COC(=O)[C@H](c1ccc2cc(C)ccc2c1)[C@@H]1CCCN1 (stereo in doubt)	–	–	2.3	850	–
COC(=O)[C@H](c1ccc2cc(C)ccc2c1)[C@@H]1CCCN1 (stereo in doubt; 10i)	–	–	3.2	1410	–
